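Each compound was tested at five concentrations against cells in 96-well plates for 48 hours. GI50: concentration for 50% inhibition of growth.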 Active and inactive are the calls of the source. Cut-off read from the data, not from the text of the source: active = GI50 up to about 1.1 µM and inactive = higher.
Columns and labels:
Experiment in all cases: DTP human tumour cell line panel, 48 h
Malme-3M = system: Malme-3M
OVCAR-4 = system: OVCAR-4
OVCAR-3 = system: OVCAR-3
HCC 2998 = system: HCC 2998
LOX IMVI = system: LOX IMVI
HT-29 = system: HT-29
SK-MEL-28 = system: SK-MEL-28
DU-145 = system: DU-145
MDA-MB-435 = system: MDA-MB-435
SNB-19 = system: SNB-19
ACHN = system: ACHN
HL-60 = system: HL-60
UO-31 = system: UO-31
EKVX = system: EKVX
NCI-H226 = system: NCI-H226
NCI/ADR-RES = system: NCI/ADR-RES
COLO 205 = system: COLO 205
NCI-H23 = system: NCI-H23
SR = system: SR

Row | SMILES | GI50 (Malme-3M) | GI50 (OVCAR-4) | GI50 (OVCAR-3) | GI50 (HCC 2998) | GI50 (LOX IMVI) | GI50 (HT-29) | GI50 (SK-MEL-28) | GI50 (DU-145) | GI50 (MDA-MB-435) | GI50 (SNB-19) | GI50 (ACHN) | GI50 (HL-60) | GI50 (UO-31) | GI50 (EKVX) | GI50 (NCI-H226) | GI50 (NCI/ADR-RES) | GI50 (COLO 205) | GI50 (NCI-H23) | GI50 (SR)
1 | CN(C)c1cccc(F)c1C(=O)NC(=O)Nc1ccc(Cl)cc1 | 1.76 µM (inactive) | > 43 µM (inactive) | 2.09 µM (inactive) | 1.4 µM (inactive) | 3.01 µM (inactive) | 1.07 µM (active) | 17.6 µM (inactive) | 4.03 µM (inactive) | 0.118 µM (active) | > 26.1 µM (inactive) | 4.79 µM (inactive) | 0.533 µM (active) | 5.87 µM (inactive) | 4.29 µM (inactive) | 5.5 µM (inactive) | 3.21 µM (inactive) | 2.21 µM (inactive) | 6.34 µM (inactive) | 0.218 µM (active)
2 | COc1cc(-c2cc(=O)c3c(OC)c(OC)c(OC)cc3o2)c(OC)c(OC)c1OC | > 75 µM (inactive) | 41.1 µM (inactive) | 51.2 µM (inactive) | > 75 µM (inactive) | 63.5 µM (inactive) | > 75 µM (inactive) | > 75 µM (inactive) | > 75 µM (inactive) | > 75 µM (inactive) | > 75 µM (inactive) | > 75 µM (inactive) | 16.9 µM (inactive) | 57.3 µM (inactive) | > 75 µM (inactive) | > 75 µM (inactive) | 36.9 µM (inactive) | > 75 µM (inactive) | > 75 µM (inactive) | 63.1 µM (inactive)
3 | CC(C)C(OC(=O)c1ccc(NCc2cc(O)ccc2O)cc1)C(C)C | 1.77 µM (inactive) | 1.47 µM (inactive) | 1.36 µM (inactive) | 2.96 µM (inactive) | 0.776 µM (active) | 3.34 µM (inactive) | 1.45 µM (inactive) | 7.01 µM (inactive) | 1.29 µM (inactive) | 1.29 µM (inactive) | 1.02 µM (active) | 0.135 µM (active) | 1.17 µM (inactive) | 1.81 µM (inactive) | 1.29 µM (inactive) | 1.42 µM (inactive) | 0.865 µM (active) | 1.89 µM (inactive) | 0.617 µM (active)
4 | Cc1ccc([N+](=O)[O-])c2c(NCCC[N+](C)(C)[O-])c3ccccc3nc12 | 1.22 µM (inactive) | 2.02 µM (inactive) | 2.19 µM (inactive) | 0.841 µM (active) | 2.04 µM (inactive) | 1.48 µM (inactive) | 3.68 µM (inactive) | 1.43 µM (inactive) | 1.77 µM (inactive) | 1.17 µM (inactive) | 5.57 µM (inactive) | 4 µM (inactive) | 16.1 µM (inactive) | 1.11 µM (active) | 2.24 µM (inactive) | > 95.3 µM (inactive) | 1.02 µM (active) | 0.573 µM (active) | 0.218 µM (active)
5 | Cn1c2c3c(F)c(F)ccc3nc-2cc2ccccc21 | 2.7 µM (inactive) | 10.1 µM (inactive) | 2.33 µM (inactive) | 1.32 µM (inactive) | 1.07 µM (active) | 1.52 µM (inactive) | 4.17 µM (inactive) | 1.34 µM (inactive) | 3.88 µM (inactive) | 3.79 µM (inactive) | 0.583 µM (active) | 13 µM (inactive) | 1.36 µM (inactive) | 12.4 µM (inactive) | 2.59 µM (inactive) | 1.49 µM (inactive) | 2.08 µM (inactive) | 1.4 µM (inactive) | 2.33 µM (inactive)
6 | CS(=O)(=O)OC1CCN(C2(c3cccc(O)c3)CCCCC2)CC1 | > 100 µM (inactive) | 43 µM (inactive) | > 100 µM (inactive) | 20.6 µM (inactive) | 21.8 µM (inactive) | 36.1 µM (inactive) | 60.4 µM (inactive) | 82.6 µM (inactive) | 29.2 µM (inactive) | > 100 µM (inactive) | > 100 µM (inactive) | 16.5 µM (inactive) | 44.7 µM (inactive) | 92.7 µM (inactive) | > 100 µM (inactive) | 48.1 µM (inactive) | 32.6 µM (inactive) | 46.5 µM (inactive) | 23.6 µM (inactive)

Reference: ChEMBL document CHEMBL1201862, “PubChem BioAssay data set” (2004)
